The values below come from patent publication US20030050306A1, “Novel heteroaryl derivatives, their preparation and use” (H. Lundbeck A/S, priority 1999, published 2003).

What is called IC50 is the point on the concentration scale where inhibition reaches its midpoint. For orientation: inhibition means the change of the read-out against control, counted positive when it falls.

The structures appear in SMILES notation.

The target of test [1] is T1, cloned human 5-HT1A receptors (Homo sapiens, UniProt P08908).
T1 construct: expressed in transfected cells; host or cells: HeLa cells (HA7)
T1 sequence (P08908 1-422): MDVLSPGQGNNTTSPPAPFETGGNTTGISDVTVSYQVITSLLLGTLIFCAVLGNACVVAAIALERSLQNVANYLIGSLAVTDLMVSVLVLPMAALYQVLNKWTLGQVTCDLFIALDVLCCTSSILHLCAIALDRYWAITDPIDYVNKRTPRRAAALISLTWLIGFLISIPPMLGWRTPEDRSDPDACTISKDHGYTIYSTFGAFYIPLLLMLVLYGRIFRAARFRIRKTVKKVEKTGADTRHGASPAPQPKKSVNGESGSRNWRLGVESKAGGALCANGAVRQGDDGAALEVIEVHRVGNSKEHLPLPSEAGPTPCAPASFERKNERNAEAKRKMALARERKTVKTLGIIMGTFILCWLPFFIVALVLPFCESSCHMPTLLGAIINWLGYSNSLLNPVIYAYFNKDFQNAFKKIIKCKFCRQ
The test can be described thus: Inhibition of 3H-5-CT binding to human 5-HT1A receptors. The conditions noted are these: cloned human 5-HT1A receptors in HeLa cells (HA7). A digest of the protocol: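 Cloned human 5-HT1A receptors stably expressed in transfected HeLa cells (HA7); 40 μg cell homogenate incubated 15 min at 37° C in 50 mM Tris pH 7.7 with 3H-5-CT. Non-specific binding defined with 10 μM metergoline; bound radioligand separated by rapid GF/B filtration and counted.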

The target in test [2] is T2, human cloned dopamine D4.2 receptors (Homo sapiens, UniProt P21917, DEL265-296).
T2 construct: expressed in transfected cells; host or cells: CHO cells
T2 sequence (P21917 with tags, fused parts or gaps DEL265-296): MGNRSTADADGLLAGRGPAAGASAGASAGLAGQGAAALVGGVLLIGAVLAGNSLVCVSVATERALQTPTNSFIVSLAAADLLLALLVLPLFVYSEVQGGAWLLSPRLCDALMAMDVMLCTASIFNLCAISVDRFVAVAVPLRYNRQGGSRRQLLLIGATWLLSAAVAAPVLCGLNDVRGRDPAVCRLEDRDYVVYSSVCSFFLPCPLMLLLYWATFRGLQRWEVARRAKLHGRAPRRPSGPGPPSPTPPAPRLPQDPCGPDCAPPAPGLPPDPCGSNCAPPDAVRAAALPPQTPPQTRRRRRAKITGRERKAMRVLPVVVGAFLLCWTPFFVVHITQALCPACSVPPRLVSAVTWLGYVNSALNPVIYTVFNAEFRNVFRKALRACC
The test is described as follows: Inhibition of the binding of 3H-YM-09151-2 to human dopamine D4 receptors. The conditions noted are these: human cloned dopamine D4.2 receptors in CHO-cells. A digest of the protocol:
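Radioligand displacement of [3H]YM-09151-2 (0.06 nM) from membranes of CHO cells expressing cloned human D4.2 receptors, measured in vitro.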

Take `N#Cc1ccc(N2CCN(CCCOc3ccccc3Cl)CC2)c2c1OCCO2` [Compound 6c, 8-{4-[3-(2-Chloro-phenoxy)-propyl]-piperazin-1-yl}-2,3-dihydro-benzo[1,4]dioxine-5-carbonitrile]: the IC50 in test [1] was 68 nM; in test [2] it was 13 nM.

`Fc1ccccc1SCCN1CCN(c2cccc3c2OCCO3)CC1` [Compound 7aw, 1-(2,3-Dihydro-benzo[1,4]dioxin-5-yl)-4-[2-(2-fluoro-phenylsulfanyl)-ethyl]-piperazine]: in test [1] (at 100 nM), the inhibition at 0.1 µM turned out to be 74%. Further, the inhibition at 0.05 µM in test [2] (at 50 nM) was 92%.

Turning to `Fc1ccc(OCCCCN2CCN(c3cccc4ccsc34)CC2)c(Cl)c1` [Compound 5bc, 1-Benzo[b]thiophen-7-yl-4-[4-(2-chloro-4-fluoro-phenoxy)-butyl]-piperazine], the IC50 in test [1] is 53 nM; in test [2], 1.9 nM.

In the case of `Fc1cc(Br)cc(F)c1OCCCN1CCN(c2cccc3c2OCCO3)CC1` [Compound 5cg, 1-[3-(4-Bromo-2,6-difluoro-phenoxy)-propyl]-4-(2,3-dihydro-benzo[1,4]dioxin-5-yl)-piperazine], the IC50 in test [1] worked out at 1.7 nM; in test [2] it was 12 nM.

Consider `Cc1ccc(Cl)c(OCCCCN2CCN(c3cccc4c3OCCO4)CC2)c1` [Compound 7ao, 1-[4-(2-Chloro-5-methyl-phenoxy)-butyl]-4-(2,3-dihydro-benzo[1,4]dioxin-5-yl)-piperazine], for which the inhibition at 0.1 µM in test [1] (at 100 nM) came out at 97%. Further, in test [2] (at 50 nM), the inhibition at 0.05 µM worked out at 89%.

As for `CC1(C)Cc2cc(Cl)cc(N3CCN(CCCOc4c(Cl)cc(S(C)(=O)=O)cc4Cl)CC3)c2O1` [Compound 5bh, 1-(5-Chloro-2,2-dimethyl-2,3-dihydro-benzofuran-7-yl)-4-[3-(2,6-dichloro-4-methanesulfonyl-phenoxy)-propyl]-piperazine], the values for the half-inhibitory concentration (IC50) in test [1] and in test [2] were 1.7 nM and 76 nM, respectively.

With `Clc1ccc(SCCN2CCN(c3cccc4c3OCCO4)CC2)c(Cl)c1` [Compound 7ap, 1-[2-(2,4-Dichloro-phenylsulfanyl)-ethyl]-4-(2,3-dihydro-henzo[1,4]dioxin-5-yl)-piperazine], in test [1] (at 100 nM), the “Inhibition of 3H-5-CT Binding % inhibition at 100 nM” value worked out at 91%. In addition, the “Inhibition of 3H-YM-09151-2 binding % inhibition at 50 nM” value in test [2] (at 50 nM) was 78%.

For the molecule `Fc1ccc(OCCCN2CCN(c3cccc4c3OCCO4)CC2)c(Br)c1` [Compound 5aa, 1-[3-(2-Bromo-4-fluoro-phenoxy)-propyl]-4-(2,3-dihydro-benzo[1,4]dioxin-5-yl)-piperazine], the IC50 in test [1] was found to be 4.9 nM; in test [2], 0.53 nM.

As to `FC(F)(F)c1ccccc1SCCCN1CCN(c2cccc3c2OCCO3)CC1` [Compound 7ak, 1-(2,3-Dihydro-benzo[1,4]dioxin-5-yl)-4-[3-(2-trifluoromethyl-phenylsulfanyl)-propyl]-piperazine], the inhibition at 0.1 µM in test [1] (at 100 nM) stood at 93%. Besides, in test [2] (at 50 nM), the inhibition at 0.05 µM amounted to 98%.

Take `N#Cc1ccc(OCCCCN2CCN(c3cccc4c3OCCO4)CC2)c(Cl)c1` [Compound 7bb, 3-Chloro-4-{4-[4-(2,3-dihydro-benzo[1,4]dioxin-5-yl)-piperazin-1-yl]-butoxy}-benzonitrile]: in test [1] (at 100 nM), the inhibition at 0.1 µM amounted to 101%. Moreover, the inhibition at 0.05 µM in test [2] (at 50 nM) came out at 94%.

As to `Fc1ccccc1OCCCN1CCN(c2cccc3c2OCCO3)CC1` [Compound 2c, 1-(2,3-Dihydro-benzo[1,4]dioxin-5-yl)-4-[3-(2-fluoro-phenoxy)-propyl]-piperazine], the IC50 worked out at 4 nM in test [1] and 1.2 nM in test [2].

As for `FC(F)(F)c1ccc(OCCCN2CCN(c3cccc4c3OCCO4)CC2)cc1` [Compound 2b, 1-(2,3-Dihydro-benzo[1,4]dioxin-5-yl)-4-[3-(4-trifluoromethyl-phenoxy)-propyl]-piperazine], the IC50 in test [1] worked out at 15 nM; in test [2], 12 nM.

With `CC1(C)COc2c(N3CCN(CCCOc4c(Cl)cc(S(C)(=O)=O)cc4Cl)CC3)cc(Cl)cc21` [Compound 5bi, 1-(5-Chloro-3,3-dimethyl-2,3-dihydro-benzofuran-7-yl)-4-[3-(2,6-dichloro-4-methanesulfonyl-phenoxy)-propyl]-piperazine], the IC50 stood at 3.5 nM in test [1] and 87 nM in test [2].
